# According to patent US20190327974A1, “SYNERGISTS FOR IMPROVED PESTICIDES” (priority 2017, published 2019):
# Substitutions are numbered along the chain they refer to. Marks after values point to notes of the source that are not given here.
# Tests used:
# [1] = system: Lucilia cuprina larvae, laboratory drug-susceptible strain LS; test: Lucilia cuprina larval bioassay (pupation rate), laboratory strain; assay type: in vivo; details: laboratory (LS) strain; pupation rate; boronic acid, where present, at 1 mg/assay
# Description: Inhibitor efficacy was determined by treating larvae with diazinon over a range of concentrations, in the presence or absence of the compounds at constant concentrations, and comparing pupation rates.
# (§1) Two strains of L. cuprina were used: 1) a laboratory reference drug-susceptible strain, LS, derived from collections in the Australian Capital Territory over 40 years ago, with no history of exposure to insecticides; and 2) a field-collected strain, Tara, resistant to diazinon and diflubenzuron (Levot, G. W. & Sales, N. New high level resistance to diflubenzuron detected in the Australian sheep blowfly, Lucilia cuprina (Wiedemann) (Diptera: Calliphoridae). Gen. Appl. Entomol. 31, 43-46 (2002)). The LcαE7 gene was sequenced in each of the strains. Briefly, genomic DNA was prepared from 20 adult female flies from each strain using the DNeasy Blood and Tissue kit (Qiagen). PCR was performed with primers specific to the LcαE7 gene, and the product was cloned into a pGEM-T EASY vector (Promega). Eight clones of the susceptible strain and 10 clones of the resistant strain were sequenced using M13 forward and reverse primers.
# Each experiment utilized 50 larvae at each diazinon/malathion concentration. Experiments were replicated three times for diazinon, and twice for malathion. The insecticidal effects were defined by measuring the pupation rate. […] Compounds were also without diazinon or malathion at 1 mg per assay.
# Aedes aegypti CBE = test: Inhibition of insect CBEs, 4-NPB substrate; assay type: biochemical; details: n=3
# Description: (§2) Assays were performed with 4-NPB as the substrate.
# [2] = molecular target: Culex quinquefasciatus CBE (Culex quinquefasciatus, UniProt Q23734); test: Inhibition of insect CBEs, 4-NPB substrate; assay type: biochemical; details: n=3
# Description: as §2
# Anopheles gambiae CBE = test: Inhibition of insect CBEs, 4-NPB substrate; assay type: biochemical; details: n=3
# Description: as §2
# [3] = molecular target: T1, Gly137Asp LcαE7 (Gly137Asp variant of αE7 carboxylesterase) (Lucilia cuprina, UniProt Q25252, G137D); test: Inhibition of Gly137Asp αE7 (competition assay, hydrolysis of 4-nitrophenol butyrate), dose-response curves of FIG. 8; assay type: biochemical
# T1 construct: GenBank number is of the wild-type parent
# Description: FIG. 8 presents dose-response curves for the inhibition of Glyl37Asp αE7. Inhibition of the hydrolysis of […] was determined for phenyl boronic acid (PBA) and compounds 1-5 and 3.1-3.12. Three (technical) replicate measurements of enzyme activity were performed for each concentration of boronic acid. The concentration of boronic acid required to inhibit 50% of activity (IC50) was determined by fitting a sigmoidal dose-response curve to plots of percentage inhibition. The curve was constrained to 0 (bottom) and 100% (top) inhibition with a variable Hill slope. […]
# His6-tagged proteins were expressed in BL21(DE3) E. coli (Invitrogen) at 26° C. for 18 hours. Cells were collected by centrifugation, resuspended in lysis buffer (300 mM NaCl, 10 mM imidazole, 50 mM HEPES pH 7.5) and lysed by sonication. Cell debris was pelleted by centrifugation and the soluble fraction was loaded onto a HisTrap-HP Ni-Sepharose column (GE Healthcare). Bound protein was eluted with lysis buffer supplemented with 300 mM imidazole. Fractions containing the eluted protein were concentrated with a 30 kDa molecular mass cutoff centrifuge concentrator (Amicon) and loaded onto a HiLoad 26/60 Superdex-200 size-exclusion column (GE Healthcare) pre-equilibrated with 150 mM NaCl, 20 mM HEPES pH 7.5. Eluted fractions containing the monomeric protein were pooled for enzyme inhibition assays or crystallization. Protein concentration was determined by measuring the absorbance at 280 nm with an extinction coefficient calculated using the Protparam online server (Gasteiger, E. et al. Protein identification and analysis tools on the ExPASy server. Proteomics Protoc. Handb. 571-607 (2005). doi:10.1385/1-59259-890-0:571).
# (§3) Inhibition of wild-type αE7 and the Gly137Asp αE7 variant was determined by a competition assay between the native-substrate analogue 4-nitrophenol butyrate (Sigma) and the boronic acid compounds. Initially, the Michalis constant (KM) with 4-nitrophenol butyrate was measured for both enzymes to determine an appropriate concentration of substrate for use in the competition assays. Formation of the 4-nitrophenolate product of hydrolysis was monitored at 405 nm in the presence of enzyme and eight different concentrations of substrate. 4-nitrophenol butyrate was prepared in methanol to 100 mM and serially diluted 1-in-2 to achieve concentrations from 100 mM to 0.8 mM. Enzyme stocks were prepared in 4 mg/ml bovine serum albumin (Sigma) to maintain enzyme stability. Reactions were prepared by pipetting 178 μl assay buffer (100 mM NaCl, 20 mM HEPES pH 7.5) and 2 μl substrate (final concentrations of 1000 to 8 μM) into 300 μl wells of a 96-well plate. The reaction was initiated by the addition of 20 μl enzyme (final concentration 2.5 nM for wildtype αE7 and 4 nM for Gly137Asp αE7). Product formation was monitored for four minutes at room temperature using an Epoch microplate spectrophotometer (BioTek) and the initial rates of ester hydrolysis were determined by linear regression using GraphPad Prism. The Michalis constant was determined by fitting the initial rates to the Michalis-Menton equation (FIG. 10).
# Enzyme inhibition with the boronic acid compounds was determined by assaying the initial rate of 4-nitrophenol butyrate hydrolysis in the presence of either neat DMSO or the boronic acid compounds in DMSO. Compounds were prepared by serially diluting 1-in-3 an initial 10 mM stock to achieve concentrations from 10 mM to 2 nM. Reactions were prepared by pipetting 178 μl assay buffer supplemented with substrate to a final concentration equal to the KM of the enzyme (15 μM for wildtype αE7 and 250 μM for Gly137Asp αE7) into wells of a 96-well plate. 2 μl neat DMSO or 2 μl serially diluted inhibitor (final concentrations of 100 μM to 20 pM) were added to the wells. The reaction was initiated by the addition of 20 μl enzyme (final concentration 0.5 nM for wildtype αE7 and 10 nM for Glyl37Asp αE7). […]
# wildtype LcαE7 = molecular target: T2, wildtype LcαE7 (Lucilia cuprina, UniProt Q25252); test: Enzyme inhibition assay with 4-nitrophenol butyrate, wild-type; assay type: biochemical
# T2 sequence (Q25252 1-570): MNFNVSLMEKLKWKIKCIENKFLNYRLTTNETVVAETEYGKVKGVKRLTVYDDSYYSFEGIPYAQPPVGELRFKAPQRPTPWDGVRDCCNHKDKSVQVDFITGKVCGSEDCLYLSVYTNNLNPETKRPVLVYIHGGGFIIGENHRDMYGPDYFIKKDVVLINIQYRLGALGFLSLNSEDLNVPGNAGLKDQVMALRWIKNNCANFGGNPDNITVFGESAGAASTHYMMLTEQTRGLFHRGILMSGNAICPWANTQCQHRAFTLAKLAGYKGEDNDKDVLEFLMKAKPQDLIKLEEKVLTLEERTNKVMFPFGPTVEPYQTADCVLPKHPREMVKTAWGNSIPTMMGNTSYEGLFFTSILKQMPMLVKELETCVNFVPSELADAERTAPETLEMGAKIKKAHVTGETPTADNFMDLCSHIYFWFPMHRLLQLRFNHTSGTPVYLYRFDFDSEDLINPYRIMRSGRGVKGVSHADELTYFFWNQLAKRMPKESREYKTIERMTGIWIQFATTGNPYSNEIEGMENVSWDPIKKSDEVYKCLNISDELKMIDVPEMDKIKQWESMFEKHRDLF
# Description: Wild-type LcαE7 was heterologously expressed in Escherichia coli and purified using metal ion affinity and size exclusion chromatography. The potency of the boronic acids was determined by enzymatic assays of recombinant LcαE7 with the model carboxylester substrate 4-nitrophenol butyrate.
# as §3
# (§4) Enzyme inhibition with the boronic acid compounds was determined by assaying the initial rate of 4-nitrophenol butyrate hydrolysis in the presence of either neat DMSO or the boronic acid compounds in DMSO. Compounds were prepared by serially diluting 1-in-3 an initial 10 mM stock to achieve concentrations from 10 mM to 2 nM. Reactions were prepared by pipetting 178 μl assay buffer supplemented with substrate to a final concentration equal to the KM of the enzyme (15 μM for wildtype αE7 and 250 μM for Gly137Asp αE7) into wells of a 96-well plate. 2 μl neat DMSO or 2 μl serially diluted inhibitor (final concentrations of 100 μM to 20 pM) were added to the wells. The reaction was initiated by the addition of 20 μl enzyme (final concentration 0.5 nM for wildtype αE7 and 10 nM for Glyl37Asp αE7). Product formation was monitored for four minutes at room temperature and the initial rates of ester hydrolysis were determined by linear regression. To determine the concentration of boronic acid compounds required to inhibit 50% of esterase activity (IC50), a four-parameter sigmoidal dose-response curve was fitted to percentage inhibition using GraphPad Prism (FIGS. 7 and 8). Ki values were determined using the Cheng-Prusoff equation assuming competitive inhibition (Yung-Chi, C. & Prusoff W. H. Relationship between the inhibition constant (KI) and the concentration of inhibitor which causes 50 percent inhibition (150) of an enzymatic reaction. Biochem. Pharmacol. 22, 3099-3108 (1973)).
# Gly137Asp LcαE7 = molecular target: T3, Gly137Asp LcαE7 (Lucilia cuprina, UniProt Q25252, G137D); test: Enzyme inhibition assay with 4-nitrophenol butyrate, Gly137Asp variant; assay type: biochemical
# T3 sequence (Q25252 1-570 G137D): T2 sequence (Q25252 1-570) with G137D
# Description: as §3, §4
# The two most common CBE-mediated insecticide resistance mechanisms involve increased protein expression, or mutation to gain new catalytic (OP-hydrolase) functions. Compounds 1 to 5 were tested against the resistance associated Gly137Asp variant of LcαE7^17,27 (Table 1). The Glyl37Asp mutation is located in the oxyanion hole and positions a new general base in the active site to catalyze dephosphorylation of the catalytic serine. Thus, compounds that inhibit WT LcαE7 as well as this common resistance associated Glyl37Asp variant would increase the efficacy of OPs by targeting both detoxification routes. Encouraged by the activity of the boronic acids 1 to 5, the compounds were tested against the Gly137Asp variant of LcαE7 (Table 1).
# [4] = system: Lucilia cuprina larvae, field strain Tara resistant to diazinon; test: Lucilia cuprina larval bioassay (pupation rate), field strain; assay type: in vivo
# Excerpt: Diazinon resistance is typically associated with the Gly137Asp mutation/resistance allele. […] This is consistent with previous results showing that duplications of the chromosomal region containing αE7 have occurred, meaning that resistant strains now carry copies of both WT and Glyl37Asp LcαE7.
# as §1
# The effect of compounds 2, 3, 5, 3.9 and 3.10 on the development of blowfly larvae in the presence of diazinon/malathion was assessed using a bioassay system in which larvae were allowed to develop from the first instar stage until pupation on cotton wool impregnated with diazinon/malathion over a range of concentrations, in the presence or absence of the compounds at constant concentrations (Kotze, A. C. et al. Histone deacetylase enzymes as drug targets for the control of the sheep blowfly, Lucilia cuprina. Int. J. Parasitol. Drugs Drug Resist. 5, 201-208 (2015)). Each experiment utilized 50 larvae at each diazinon/malathion concentration. Experiments were replicated three times for diazinon, and twice for malathion. The insecticidal effects were defined by measuring the pupation rate. […] Compounds were also without diazinon or malathion at 1 mg per assay.
Structure (SMILES),Ki (Aedes aegypti CBE),Ki [2],Ki (Anopheles gambiae CBE),other results
"CCOC(=O)CC(SP(=S)(OC)OC)C(=O)OCC (centres unmarked) [Mal alone, malathion, reference compound]",–,–,–,Malathion dose response EC50 [1]: 2.06 μg/assay
OB(O)c1cc2ccc(OCc3ccccc3)cc2[nH]1 [Compound C10],10 nM,190 nM,80 nM,–
O=C(Nc1ccccc1Cl)c1cc(B(O)O)ccc1Cl [Compound C2],37000 nM,3600 nM,420 nM,–
OB(O)c1cc(Cl)cc(N2CCCC2)c1 [Compound 3.2],–,–,–,IC50 [3]: 400 nM; Ki (wildtype LcαE7): 0.35 nM; Ki (Gly137Asp LcαE7): 210 nM
OB(O)c1ccc(COc2ccc(Cl)c3ccccc23)cc1 [Compound C21],10000 nM,140 nM,200 nM,–
"CCOP(=S)(OCC)Oc1cc(C)nc(C(C)C)n1 [Dz alone, diazinon]",–,–,–,"Diazinon dose response EC50 [1]: 0.80 μg/assay; RR = resistance ratio ([4]; EC50 with the field strain/EC50 for Dz alone for the laboratory strain): 2.86 ^#; diazinon EC50 for the field strain compared to the laboratory strain ([4]; absence of the boronic acids, fold higher): 2.9 fold; Diazinon dose response EC50 ([4]; field (Tara) strain, pupation rate, boronic acid, where present, at 1 mg/assay): 2.29 μg/assay"
